Data taken from ChEMBL document CHEMBL3797141, “Design, synthesis and preliminary biological evaluation of 4-aminopyrazole derivatives as novel and potent JAKs inhibitors” (Bioorg Med Chem, 2016).

Assays:
[1] = target: T1, Tyrosine-protein kinase JAK3 (Homo sapiens, UniProt P52333)
T1 sequence (P52333 whole entry): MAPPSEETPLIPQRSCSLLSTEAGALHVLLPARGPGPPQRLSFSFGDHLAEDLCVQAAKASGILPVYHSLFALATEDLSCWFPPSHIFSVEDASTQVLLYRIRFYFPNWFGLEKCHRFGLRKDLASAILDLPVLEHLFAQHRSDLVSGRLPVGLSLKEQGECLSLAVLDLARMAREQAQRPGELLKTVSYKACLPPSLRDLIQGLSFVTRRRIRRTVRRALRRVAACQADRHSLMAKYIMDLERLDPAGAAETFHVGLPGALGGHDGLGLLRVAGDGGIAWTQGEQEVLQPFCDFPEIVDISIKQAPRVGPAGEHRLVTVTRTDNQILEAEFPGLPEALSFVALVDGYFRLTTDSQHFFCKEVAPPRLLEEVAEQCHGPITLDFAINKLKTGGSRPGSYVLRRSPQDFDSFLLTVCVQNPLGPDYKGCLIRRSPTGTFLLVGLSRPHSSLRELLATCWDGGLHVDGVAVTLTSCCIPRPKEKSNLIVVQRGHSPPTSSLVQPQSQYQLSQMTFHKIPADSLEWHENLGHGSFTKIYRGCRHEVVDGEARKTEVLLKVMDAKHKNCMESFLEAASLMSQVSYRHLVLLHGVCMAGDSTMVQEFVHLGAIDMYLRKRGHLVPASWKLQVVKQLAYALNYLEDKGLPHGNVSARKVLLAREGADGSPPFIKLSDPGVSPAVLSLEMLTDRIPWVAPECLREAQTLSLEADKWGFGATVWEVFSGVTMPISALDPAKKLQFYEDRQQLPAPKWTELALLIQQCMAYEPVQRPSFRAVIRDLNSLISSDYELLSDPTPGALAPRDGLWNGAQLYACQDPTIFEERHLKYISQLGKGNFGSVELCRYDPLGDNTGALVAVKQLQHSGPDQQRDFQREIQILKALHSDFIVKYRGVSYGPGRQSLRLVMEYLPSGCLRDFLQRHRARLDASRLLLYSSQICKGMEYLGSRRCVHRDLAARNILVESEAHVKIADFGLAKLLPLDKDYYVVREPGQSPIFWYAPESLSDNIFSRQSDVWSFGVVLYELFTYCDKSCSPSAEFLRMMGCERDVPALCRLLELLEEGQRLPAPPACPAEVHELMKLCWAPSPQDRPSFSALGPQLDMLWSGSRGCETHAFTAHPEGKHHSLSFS

[2] = target: Tyrosine-protein kinase JAK2 (Homo sapiens, UniProt O60674); set-up: species or system Sf21
[3] = target: Tyrosine-protein kinase JAK1 (Homo sapiens, UniProt P23458)
Chain of Tyrosine-protein kinase JAK1 (P23458 whole entry): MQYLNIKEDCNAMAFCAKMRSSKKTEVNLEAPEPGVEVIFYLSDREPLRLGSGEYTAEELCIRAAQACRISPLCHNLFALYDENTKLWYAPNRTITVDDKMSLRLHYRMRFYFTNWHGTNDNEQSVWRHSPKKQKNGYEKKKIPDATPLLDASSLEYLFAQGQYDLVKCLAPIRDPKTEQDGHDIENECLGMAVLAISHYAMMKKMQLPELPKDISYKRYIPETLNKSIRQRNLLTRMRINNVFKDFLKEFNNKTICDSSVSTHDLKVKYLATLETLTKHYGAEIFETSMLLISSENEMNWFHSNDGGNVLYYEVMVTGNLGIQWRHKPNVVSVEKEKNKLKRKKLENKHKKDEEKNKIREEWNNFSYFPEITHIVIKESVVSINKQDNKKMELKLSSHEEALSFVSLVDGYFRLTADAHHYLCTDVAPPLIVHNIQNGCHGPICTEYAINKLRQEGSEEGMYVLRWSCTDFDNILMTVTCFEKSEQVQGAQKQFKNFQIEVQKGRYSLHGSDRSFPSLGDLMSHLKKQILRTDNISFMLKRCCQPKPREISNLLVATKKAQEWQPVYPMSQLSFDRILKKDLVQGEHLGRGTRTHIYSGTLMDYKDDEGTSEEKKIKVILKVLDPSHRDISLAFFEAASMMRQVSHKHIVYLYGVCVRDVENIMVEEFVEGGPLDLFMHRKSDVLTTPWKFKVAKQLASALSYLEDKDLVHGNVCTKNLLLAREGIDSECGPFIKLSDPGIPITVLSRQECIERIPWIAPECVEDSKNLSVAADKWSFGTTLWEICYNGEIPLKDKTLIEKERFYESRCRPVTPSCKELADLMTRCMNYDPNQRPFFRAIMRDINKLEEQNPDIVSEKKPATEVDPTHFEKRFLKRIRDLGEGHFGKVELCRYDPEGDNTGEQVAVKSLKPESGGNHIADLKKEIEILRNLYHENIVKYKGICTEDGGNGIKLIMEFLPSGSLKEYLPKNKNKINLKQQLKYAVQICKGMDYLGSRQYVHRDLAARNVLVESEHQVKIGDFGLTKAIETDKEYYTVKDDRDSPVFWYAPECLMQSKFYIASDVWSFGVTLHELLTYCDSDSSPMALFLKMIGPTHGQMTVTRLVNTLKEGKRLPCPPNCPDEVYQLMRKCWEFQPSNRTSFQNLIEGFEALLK

Chain of Tyrosine-protein kinase JAK2 (O60674 whole entry): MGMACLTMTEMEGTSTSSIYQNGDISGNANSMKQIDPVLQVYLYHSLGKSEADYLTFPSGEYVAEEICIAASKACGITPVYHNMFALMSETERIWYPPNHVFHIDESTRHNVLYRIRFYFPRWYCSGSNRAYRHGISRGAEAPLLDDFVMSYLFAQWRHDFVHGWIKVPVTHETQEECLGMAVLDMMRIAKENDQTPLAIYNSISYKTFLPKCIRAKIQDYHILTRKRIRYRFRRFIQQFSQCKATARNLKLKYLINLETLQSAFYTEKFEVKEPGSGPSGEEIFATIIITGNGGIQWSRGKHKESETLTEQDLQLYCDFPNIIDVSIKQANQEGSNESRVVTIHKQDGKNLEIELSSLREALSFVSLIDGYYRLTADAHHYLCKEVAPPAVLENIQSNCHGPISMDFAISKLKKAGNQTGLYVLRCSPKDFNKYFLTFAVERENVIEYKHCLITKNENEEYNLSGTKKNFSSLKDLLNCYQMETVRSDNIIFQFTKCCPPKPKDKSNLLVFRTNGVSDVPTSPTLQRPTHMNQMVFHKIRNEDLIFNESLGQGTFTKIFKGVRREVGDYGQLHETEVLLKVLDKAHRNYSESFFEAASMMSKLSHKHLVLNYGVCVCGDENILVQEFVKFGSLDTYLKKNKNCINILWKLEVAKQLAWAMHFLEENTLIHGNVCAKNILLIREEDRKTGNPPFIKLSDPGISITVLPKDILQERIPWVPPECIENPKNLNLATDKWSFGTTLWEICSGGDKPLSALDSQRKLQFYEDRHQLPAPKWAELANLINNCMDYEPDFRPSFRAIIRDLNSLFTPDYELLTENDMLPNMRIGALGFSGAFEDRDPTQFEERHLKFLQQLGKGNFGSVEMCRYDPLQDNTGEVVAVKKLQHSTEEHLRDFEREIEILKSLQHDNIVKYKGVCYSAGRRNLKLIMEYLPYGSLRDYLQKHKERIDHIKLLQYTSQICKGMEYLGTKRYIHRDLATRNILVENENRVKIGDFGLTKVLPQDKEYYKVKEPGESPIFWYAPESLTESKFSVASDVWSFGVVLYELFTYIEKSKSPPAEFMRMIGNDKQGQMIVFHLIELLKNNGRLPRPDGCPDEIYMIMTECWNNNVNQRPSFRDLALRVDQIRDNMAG

Q: What does the source list for `CNc1nc(Nc2cnn(C(CC(N)=O)C3CCCCC3)c2)ncc1C(F)(F)F` (stereo not drawn)?
A: IC50 [1]: 39 nM; IC50 [2]: 98 nM; IC50 [3]: 670 nM
